Results: ChEMBL document CHEMBL5120899, “Sesquiterpene Lactones from Vernonia tufnelliae: Structural Characterization and Biological Evaluation” (J Nat Prod, 2022)

Test system: HeLa S3
Experiment: Cytotoxicity against human HeLa S3 cells assessed as cell viability incubated for 48 hrs by microscopic analysis
Assay type: functional, cell-based
Conditions: HeLa S3, 48 h

Compound	IC50 [µM]
Oc1ccc(Cc2ccc(O)cc2)cc1	> 10
Oc1ccc(Cc2ccccc2O)cc1	> 10
C=C(CO)C(=O)O[C@H]1C/C(C)=C/CC/C(CO)=C/[C@H]2OC(=O)C(=C)[C@H]12	> 10
COc1cc2oc(-c3ccc(O)c(O)c3)cc(=O)c2c(O)c1O	> 10
C=C(CO)C(=O)O[C@H]1C/C(C)=C/CC/C(CO)=C/[C@H]2OC(=O)[C@@H](CN[C@H](Cc3ccccc3)C(=O)O)[C@H]12	> 10
C=C[C@@]1(C)C[C@@H](OC(=O)C(=C)CO)[C@H](C(=C)C(=O)OC/C2=C\[C@H]3OC(=O)C(=C)[C@@H]3[C@@H](OC(=O)C(=C)CO)C/C(C)=C/CC2)[C@@H](O)[C@@H]1C(=C)CO	> 10
C=C(CO)C(=O)O[C@H]1C/C(C)=C/CC/C(CO)=C/[C@H]2OC(=O)[C@@H](CN[C@@H](C(=O)O)C(C)C)[C@H]12	> 10
C=C(CO)C(=O)O[C@H]1C/C(C)=C/CC/C(CO)=C/[C@H]2OC(=O)[C@@H](CN3C[C@@H](CO)[C@]4(O)O[C@H]5C/C(C)=C/CC/C(CO)=C/[C@H]6OC(=O)[C@]4(C3)[C@H]56)[C@H]12	> 10
C=C(CO)C(=O)O[C@H]1C/C(C)=C/CC/C(CO)=C/[C@H]2OC(=O)[C@@H](CN[C@H](CC(C)C)C(=O)O)[C@H]12	> 10
O=Cc1c[nH]c2ccccc12 [3-FORMYLINDOLE]	> 10
O=c1cc(-c2ccc(O)cc2)oc2cc(O)cc(O)c12 [APIGENIN]	> 10
O=c1cc(-c2ccc(O)cc2)oc2cc(O[C@@H]3O[C@H](CO)[C@@H](O)[C@H](O)[C@H]3O)cc(O)c12 [APIGETRIN]	> 10
O=c1cc(-c2ccc(O)c(O)c2)oc2cc(O[C@@H]3O[C@H](CO)[C@@H](O)[C@H](O)[C@H]3O)cc(O)c12 [GALUTEOLIN]	> 10
